The results in this text go back to US20250388565A1, “ESTROGEN RECEPTOR ALPHA DEGRADERS AND METHODS OF USE THEREOF” (Relay Therapeutics, Inc., priority 2022, published 2025).

In this assay the target is T1, ERα protein (HiBiT-tagged) in ESR1_HiBiT KI MCF7 cells (Homo sapiens, UniProt P03372).
T1 sequence (P03372 1-595): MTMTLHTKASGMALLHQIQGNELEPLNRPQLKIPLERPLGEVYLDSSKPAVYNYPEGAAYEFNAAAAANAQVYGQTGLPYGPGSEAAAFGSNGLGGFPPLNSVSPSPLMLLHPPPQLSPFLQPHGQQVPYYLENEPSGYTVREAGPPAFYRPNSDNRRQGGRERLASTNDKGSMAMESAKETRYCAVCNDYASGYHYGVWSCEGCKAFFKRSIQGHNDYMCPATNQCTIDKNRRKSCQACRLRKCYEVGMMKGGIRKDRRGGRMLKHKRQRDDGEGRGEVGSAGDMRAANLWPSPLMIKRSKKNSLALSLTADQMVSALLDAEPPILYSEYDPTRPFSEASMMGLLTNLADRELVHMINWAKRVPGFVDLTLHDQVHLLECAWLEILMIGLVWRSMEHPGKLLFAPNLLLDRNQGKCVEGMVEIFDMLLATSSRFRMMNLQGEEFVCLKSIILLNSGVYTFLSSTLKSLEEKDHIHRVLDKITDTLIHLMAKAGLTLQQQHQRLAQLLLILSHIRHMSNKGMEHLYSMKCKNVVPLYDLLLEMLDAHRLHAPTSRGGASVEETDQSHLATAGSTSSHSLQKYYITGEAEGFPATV
Nature of the assay: Nano Glo HiBiT Lytic Degradation Assay. The class given is cell-based. The note with it: 6 hours with compound, 14-point dose response 1:3, bell-shape curve fit, half-maximal effect of first Hill model, read-out: MCF7 ESR1 HiBiT - (DC50). Summed up:
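HiBiT-tagged endogenous ERα remaining in MCF7 knock-in cells was quantified by lytic luminescence after a 6 h treatment. DC50 values derive from a bell-shaped curve, taken at the first Hill component's half-maximal effect.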
(In general: With HiBiT, luminescence reflects the tagged protein that the partner subunit can reach.)
Usually DC50 stands for the concentration at which degradation of the target reaches its halfway point. On to `O=C1CC[C@H](N2Cc3cc(N4CCN(CC5CCN(c6ccc([C@@H]7c8ccc(O)cc8C(F)(F)C[C@@H]7c7ccccc7F)cc6)CC5)CC4)ccc3C2=O)C(=O)N1` [Compound I-312, (S)-3-(5-(4-((1-(4-((1R,2S)-4,4-difluoro-2-(2-fluorophenyl)-6-hydroxy-1,2,3,4-tetrahydronaphthalen-1-yl)phenyl)piperidin-4-yl)methyl)piperazin-1-yl)-1-oxoisoindolin-2-yl)piperidine-2,6-dione], for which the DC50 is 0.37 nM. Consider `CC(C)c1ccccc1[C@@H]1OCc2cc(O)ccc2[C@@H]1c1ccc(N2CCC(CN3CCN(c4ccc5c(c4)CN([C@H]4CCC(=O)NC4=O)C5=O)CC3)CC2)cc1` [Compound I-352, (S)-3-(5-(4-((1-(4-((3R,4S)-7-hydroxy-3-(2-isopropylphenyl)isochroman-4-yl)phenyl)piperidin-4-yl)methyl)piperazin-1-yl)-1-oxoisoindolin-2-yl)piperidine-2,6-dione], for which the DC50 was 17 nM. Take `Cc1cc(N2CCC3(CCN(CC4CCN(c5ccc([C@@H]6c7ccc(O)cc7C(F)(F)C[C@@H]6c6ccccc6)cc5)CC4)C3)CC2)ccc1N1CCC(=O)NC1=O` (single isomer, unassigned) [Compound I-294]: the DC50 is 0.28 nM. Under `C[C@H]1O[C@H](C2CCCCC2)[C@@H](c2ccc(N3CCC(CN4CCN(c5ccc6c(c5)CN([C@H]5CCC(=O)NC5=O)C6=O)CC4)CC3)cc2)c2ccc(O)cc21` (single isomer, unassigned) [Compound I-255] stands 0.87 nM; under `Cc1cc(N2CCC(CN3CCN(c4ccc5c(c4)CN([C@H]4CCC(=O)NC4=O)C5=O)CC3)CC2)ccc1[C@@H]1c2ccc(O)cc2CC[C@@H]1c1ccccc1` [Compound I-139, (S)-3-(5-(4-((1-(4-((1R,2S)-6-hydroxy-2-phenyl-1,2,3,4-tetrahydronaphthalen-1-yl)-3-methylphenyl)piperidin-4-yl)methyl)piperazin-1-yl)-1-oxoisoindolin-2-yl)piperidine-2,6-dione], 0.76 nM. With `O=C1CC[C@H](N2Cc3cc(N4CCN(C[C@H]5CC[C@H](c6ccc([C@@H]7c8ccc(O)cc8CC[C@@H]7c7ccccc7)cc6)CC5)CC4)ccc3C2=O)C(=O)N1` [II-52], the DC50 came to 0.15 nM. The value for `O=C1CC[C@H](N2Cc3cc(N4CCN(CC5CCN(c6ccc([C@@H]7c8ccc(O)cc8CC[C@@H]7c7ccccc7)c(F)c6)CC5)CC4)ccc3C2=O)C(=O)N1` [II-86] was 0.61 nM; that for `O=C1CC[C@H](N2Cc3cc(N4CCN(CC5CCN(c6ccc([C@@H]7c8ccc(O)cc8CC[C@@H]7C7CCOCC7)cc6)CC5)CC4)ccc3C2=O)C(=O)N1` [Compound I-32, (3S)-3-[5-[4-[[1-[4-[(1R,2R)-6-hydroxy-2-tetrahydropyran-4-yl-tetralin-1-yl]phenyl]-4-piperidyl]methyl]piperazin-1-yl]-1-oxo-isoindolin-2-yl]piperidine-2,6-dione] was 0.45 nM.

For the compound `CC1(C)CCC([C@@H]2CCc3cc(O)ccc3[C@@H]2c2ccc(N3CCC(CN4CCN(c5ccc6c(c5)CN([C@H]5CCC(=O)NC5=O)C6=O)CC4)CC3)cc2)CC1` (single isomer, unassigned) [Compound I-106], the half-maximal degradation concentration (DC50) was determined as 1030 nM.

Regarding `O=C1CC[C@H](N2Cc3cc(N4CCN(CC5CCN(c6ccc([C@@H]7c8ccc(O)cc8C(F)(F)C[C@@H]7c7ccccc7)nc6)CC5)CC4)ccc3C2=O)C(=O)N1` [Compound I-203, (S)-3-(5-(4-((1-(6-((1S,2S)-4,4-difluoro-6-hydroxy-2-phenyl-1,2,3,4-tetrahydronaphthalen-1-yl)pyridin-3-yl)piperidin-4-yl)methyl)piperazin-1-yl)-1-oxoisoindolin-2-yl)piperidine-2,6-dione], the DC50 was found to be 0.23 nM.

`COc1cc(N2CCC(CN3CCN(c4ccc5c(c4)CN([C@H]4CCC(=O)NC4=O)C5=O)CC3)CC2)c(-c2ccccc2)cc1[C@H]1CCC(F)(F)c2cc(O)ccc21` [Compound I-406]: the DC50 amounted to 25 nM. `C[C@H]1O[C@@H](C2CCCCC2)[C@@H](c2ccc(N3CCC(CN4CCN(c5ccc6c(c5)CN([C@H]5CCC(=O)NC5=O)C6=O)CC4)CC3)cc2)c2ccc(O)cc21` [Compound I-251, (S)-3-(5-(4-((1-(4-((1R,3S,4S)-3-cyclohexyl-7-hydroxy-1-methylisochroman-4-yl)phenyl)piperidin-4-yl)methyl)piperazin-1-yl)-1-oxoisoindolin-2-yl)piperidine-2,6-dione]: the DC50 was 44 nM. The value for `O=C1CC[C@H](N2Cc3cc(N4CCN(CC5CCN(c6ccc([C@@H]7c8ccc(O)cc8CO[C@@H]7c7ccccc7)cc6F)CC5)CC4)ccc3C2=O)C(=O)N1` (single isomer, unassigned) [Compound I-381] was 0.16 nM; that for `O=C1CC[C@H](N2Cc3cc(N4CCN(CC5CCN(c6ccc([C@@H]7c8ccc(O)cc8CO[C@@H]7c7ccccc7)cc6)CC5)CC4)ccc3C2=O)C(=O)N1` [Compound I-3, (S)-3-(5-(4-((1-(4-((3S,4R)-7-hydroxy-3-phenylisochroman-4-yl)phenyl)piperidin-4-yl)methyl)piperazin-1-yl)-1-oxoisoindolin-2-yl)piperidine-2,6-dione] was 0.27 nM; that for `O=C1CC[C@H](N2Cc3cc(N4CCN(CC5CCN(c6ccc([C@@H]7c8ccc(O)cc8CC[C@@H]7C7CCCCC7)nc6)CC5)CC4)ccc3C2=O)C(=O)N1` [Compound I-149, (S)-3-(5-(4-((1-(6-((1S,2R)-2-cyclohexyl-6-hydroxy-1,2,3,4-tetrahydronaphthalen-1-yl)pyridin-3-yl)piperidin-4-yl)methyl)piperazin-1-yl)-1-oxoisoindolin-2-yl)piperidine-2,6-dione] was 0.82 nM. On to `O=C1CCC(c2cccc(N3CC[C@H]4[C@@H]3CCN4CC3CCN(c4ccc([C@@H]5c6ccc(O)cc6CC[C@@H]5c5ccccc5)cc4)CC3)c2)C(=O)N1` (stereo partly drawn) [Compound I-179, 3-(3-((3aS,6aS)-4-((1-(4-((1R,2S)-6-hydroxy-2-phenyl-1,2,3,4-tetrahydronaphthalen-1-yl)phenyl)piperidin-4-yl)methyl)hexahydropyrrolo[3,2-b]pyrrol-1 (2H)-yl)phenyl)piperidine-2,6-dione], for which the DC50 turned out to be 34 nM. Under `O=C1CC(N2Cc3cc(N4CCN(CC5CCN(c6ccc([C@@H]7c8ccc(O)cc8CC[C@@H]7c7ccccc7)cc6)CC5)CC4)ccc3C2=O)C(=O)N1` (stereo partly drawn) [Compound I-274, 3-(5-(4-((1-(4-((1R,2S)-6-hydroxy-2-phenyl-1,2,3,4-tetrahydronaphthalen-1-yl)phenyl)piperidin-4-yl)methyl)piperazin-1-yl)-1-oxoisoindolin-2-yl) pyrrolidine-2,5-dione] stands 1 nM; under `Cn1c(=O)n([C@H]2CCC(=O)NC2=O)c2ccc(N3CCN(CC4CCN(c5ccc([C@@H]6c7ccc(O)cc7CO[C@@H]6c6ccccc6)cc5)CC4)CC3)cc21` (single isomer, unassigned) [Compound I-387], 0.16 nM; under `CC(C)[C@@H]1CC(F)(F)c2cc(O)ccc2[C@@H]1c1ccc(N2CCC(CN3CCN(c4ccc5c(c4)CN([C@H]4CCC(=O)NC4=O)C5=O)CC3)CC2)cc1` [Compound I-153, (S)-3-(5-(4-((1-(4-((1S,2S)-4,4-difluoro-6-hydroxy-2-isopropyl-1,2,3,4-tetrahydronaphthalen-1-yl)phenyl)piperidin-4-yl)methyl)piperazin-1-yl)-1-oxoisoindolin-2-yl)piperidine-2,6-dione], 13 nM. Under `Cc1cc(F)cc(C)c1[C@H]1CCc2cc(O)ccc2[C@H]1c1ccc(N2CCC(CN3CCN(c4ccc5c(c4)CN([C@H]4CCC(=O)NC4=O)C5=O)CC3)CC2)cc1` [II-72] stands at least 10000 nM; under `O=C1CC[C@H](N2Cc3cc(N4CCN(CC5CCN(c6ccc([C@@H]7c8ccc(O)cc8CO[C@]78CCCc7ccccc78)cc6)CC5)CC4)ccc3C2=O)C(=O)N1` (single isomer, unassigned) [Compound I-272], 4 nM. Consider `Cn1nc(N2CCC(=O)NC2=O)c2ccc(N3CCN(CC4CCN(c5ccc([C@@H]6c7ccc(O)cc7CC[C@@H]6c6ccccc6)cc5)CC4)CC3)cc21` [Compound I-299, 1-(6-(4-((1-(4-((1R,2S)-6-hydroxy-2-phenyl-1,2,3,4-tetrahydronaphthalen-1-yl)phenyl)piperidin-4-yl)methyl)piperazin-1-yl)-1-methyl-1H-indazol-3-yl)dihydropyrimidine-2,4 (1H,3H)-dione], for which the half-maximal degradation concentration (DC50) turned out to be 1 nM.

As for `O=C1CC[C@H](N2Cc3cc(N4C[C@@H]5C[C@H]4CN5CC4CCN(c5ccc([C@@H]6c7ccc(O)cc7CC[C@@H]6c6ccccc6)cc5)CC4)ccc3C2=O)C(=O)N1` [II-7], the 50% degradation concentration (DC50) was at least 10000 nM. Turning to `C[C@@]1(C2CCCCC2)CCc2cc(O)ccc2[C@@H]1c1ccc(N2CCC(CN3CCN(c4ccc5c(c4)CN([C@H]4CCC(=O)NC4=O)C5=O)CC3)CC2)cc1` [Compound I-237, (S)-3-(5-(4-((1-(4-((1S,2S)-2-cyclohexyl-6-hydroxy-2-methyl-1,2,3,4-tetrahydronaphthalen-1-yl)phenyl)piperidin-4-yl)methyl)piperazin-1-yl)-1-oxoisoindolin-2-yl)piperidine-2,6-dione], the 50% degradation concentration (DC50) was at least 10000 nM.
